Assay results published in PubChem BioAssay (NCI).
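1) Cells in 96-well plates. 2) Compound, 48 h, 5 concentrations. 3) Linear interpolation between surrounding doses. 4) Unreached endpoint = highest concentration. Here, GI50 denotes the concentration required for 50% inhibition of growth. TGI: concentration producing complete growth inhibition.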

Legend:
Assay in all cases: growth of human tumour cells (NCI), 48 h
[1] = test system: HL-60(TB) leukemia
[2] = test system: CAKI-1 renal
[3] = test system: MDA-MB-435
[4] = test system: OVCAR-4 ovarian
[5] = test system: RXF 393 renal
[6] = test system: NCI-H23 lung
[7] = test system: SK-OV-3 ovarian
[8] = test system: SNB-19 CNS
[9] = test system: UACC-62 melanoma
[10] = test system: LOX IMVI melanoma
[11] = test system: HCT-116 colon
[12] = test system: MALME-3M melanoma
[13] = test system: HCT-15 colon
[14] = test system: A549 NSCLC
[15] = test system: MDA-MB-231 breast
[16] = test system: NCI-H460 lung
[17] = test system: MOLT-4 leukemia
[18] = test system: DU-145 prostate
[19] = test system: SK-MEL-5 melanoma
[20] = test system: SW-620 colon
[21] = test system: PC-3 prostate
[22] = test system: SF-539 CNS
[23] = test system: IGROV1 ovarian
[24] = test system: HT29 colon
[25] = test system: HS 578T breast
[26] = test system: SR leukemia
[27] = test system: COLO 205 colon
[28] = test system: TK-10 renal
[29] = test system: ACHN renal
[30] = test system: K-562 leukemia
[31] = test system: NCI-H522 lung
[32] = test system: SK-MEL-2 melanoma
[33] = test system: MCF7 breast
[34] = test system: U251 CNS
[35] = test system: UACC-257 melanoma
[36] = test system: SF-295 CNS
[37] = test system: CCRF-CEM leukemia
[38] = test system: OVCAR-3 ovarian
[39] = test system: SK-MEL-28 melanoma
[40] = test system: SF-268 CNS
[41] = test system: HCC-2998 colon
[42] = test system: SN12C renal
[43] = test system: EKVX NSCLC
[44] = test system: A498 renal
[45] = test system: UO-31 renal
[46] = test system: OVCAR-8 ovarian
[47] = test system: RPMI-8226 leukemia
[48] = test system: 786-0 renal
[49] = test system: T-47D breast
[50] = test system: HOP-62 NSCLC
[51] = test system: KM12 colon
[52] = test system: HOP-92 NSCLC
[53] = test system: OVCAR-5 ovarian
[54] = test system: NCI-H226 lung
[55] = test system: M14 melanoma
[56] = test system: NCI/ADR-RES ovarian
[57] = test system: BT-549 breast
[58] = test system: SNB-75 CNS

In the case of `O=C1c2cccc3cccc(c23)C(=O)N1CCCCOc1ccc(-c2nc3ccc(N4CCOCC4)cc3[nH]2)cc1`, the GI50 [1] is reported as 2.29 µM, the TGI [1] is reported as 4.55 µM and the GI50 [2] is reported as 11.6 µM. The TGI [2] was 27 µM, the GI50 [3] was 2.04 µM and the TGI [3] was 4.54 µM. The GI50 [4] was 1.8 µM, the TGI [4] was 4.08 µM and the GI50 [5] was 0.547 µM. It also gave a TGI [5] of 3 µM, a GI50 [6] of 6.7 µM and a TGI [6] of 23.5 µM. The GI50 [7] was 31.2 µM, the TGI [7] was > 54 µM and the GI50 [8] was 7.91 µM. The TGI [8] was > 48.5 µM, the GI50 [9] was 1.72 µM and the TGI [9] was 3.2 µM. The GI50 [10] was 2.11 µM, the TGI [10] was 4.53 µM and the GI50 [11] was 1.76 µM. The TGI [11] was 3.32 µM, the GI50 [12] was 0.558 µM and the TGI [12] was 3.21 µM. For the same compound, the GI50 [13] was 2.14 µM, the TGI [13] was 8.01 µM and the GI50 [14] was 3.77 µM. The TGI [14] was > 84.4 µM, the GI50 [15] was 3.27 µM and the TGI [15] was 10.5 µM. It also gave a GI50 [16] of 3.42 µM, a TGI [16] of 16.1 µM and a GI50 [17] of 2.95 µM. For the same compound, the TGI [17] was > 100 µM, the GI50 [18] was 3.86 µM and the TGI [18] was 15.8 µM. For the same compound, the GI50 [19] was 1.6 µM, the TGI [19] was 3.06 µM and the GI50 [20] was 3.78 µM. The TGI [20] was 12.3 µM, the GI50 [21] was 3.16 µM and the TGI [21] was 23.6 µM. The GI50 [22] was 1.65 µM, the TGI [22] was 3.47 µM and the GI50 [23] was 11.1 µM. The TGI [23] was 66.9 µM, the GI50 [24] was 2.23 µM and the TGI [24] was > 35.3 µM. The GI50 [25] was 2.16 µM, the TGI [25] was 14.7 µM and the GI50 [26] was 2.35 µM. For the same compound, the TGI [26] was > 100 µM, the GI50 [27] was 3.78 µM and the TGI [27] was 13.7 µM. It also gave a GI50 [28] of 3.57 µM, a TGI [28] of 13.4 µM and a GI50 [29] of 15.2 µM. It also gave a TGI [29] of 29.2 µM, a GI50 [30] of 3.25 µM and a TGI [30] of 9.47 µM. The GI50 [31] was 15.1 µM, the TGI [31] was 41.2 µM and the GI50 [32] was 15.7 µM. The TGI [32] was 53.6 µM, the GI50 [33] was 2.92 µM and the TGI [33] was 12.8 µM. It also gave a GI50 [34] of 1.53 µM, a TGI [34] of 4.56 µM and a GI50 [35] of 5.06 µM. For the same compound, the TGI [35] was 27.9 µM, the GI50 [36] was 1.63 µM and the GI50 [37] was 2.91 µM. For the same compound, the TGI [37] was > 28.2 µM, the GI50 [38] was 5.05 µM and the TGI [38] was 11.2 µM. For the same compound, the GI50 [39] was 1.42 µM, the TGI [39] was 2.86 µM and the GI50 [40] was 7.35 µM. The TGI [40] was > 69.6 µM, the GI50 [41] was 5.25 µM and the TGI [41] was > 47.8 µM. For the same compound, the GI50 [42] was 5.56 µM, the TGI [42] was 12.1 µM and the GI50 [43] was 17.6 µM. The TGI [43] was > 57.9 µM, the GI50 [44] was 3.38 µM and the TGI [44] was 20.2 µM. The GI50 [45] was 10.8 µM, the TGI [45] was > 35.2 µM and the GI50 [46] was 6.21 µM. For the same compound, the TGI [46] was > 75.1 µM, the GI50 [47] was 1.27 µM and the TGI [47] was 4.39 µM. The GI50 [48] was 1.28 µM, the TGI [48] was 2.68 µM and the GI50 [49] was 3.08 µM. The TGI [49] was 15.9 µM, the GI50 [50] was 2.47 µM and the TGI [50] was 5.9 µM. It also gave a GI50 [51] of 2.88 µM, a GI50 [52] of 2 µM and a TGI [52] of 4.37 µM. It also gave a GI50 [53] of 18.9 µM, a TGI [53] of 34.9 µM and a GI50 [54] of 25.6 µM. For the same compound, the TGI [54] was 47.6 µM, the GI50 [55] was 2.88 µM and the TGI [55] was 7.55 µM. For the same compound, the GI50 [56] was 10.3 µM, the TGI [56] was > 83.9 µM and the GI50 [57] was 1.49 µM. The TGI [57] was 3.15 µM.
Compound `O=C1NC(=NCCc2ccccc2Cl)S/C1=C\c1ccc2ncccc2c1` has a GI50 [1] of 2.63 µM, a TGI [1] of 10.3 µM and a GI50 [2] of 3.3 µM. For the same compound, the TGI [2] was > 14.8 µM, the GI50 [3] was 1.45 µM and the TGI [3] was 9.81 µM. For the same compound, the GI50 [4] was 4.26 µM, the TGI [4] was > 14.9 µM and the GI50 [5] was 4.85 µM. For the same compound, the TGI [5] was > 25 µM, the GI50 [6] was 6.06 µM and the TGI [6] was > 25 µM. For the same compound, the GI50 [7] was 5.94 µM, the TGI [7] was > 20.4 µM and the GI50 [8] was 7.4 µM. For the same compound, the TGI [8] was > 25 µM, the GI50 [9] was 6.49 µM and the TGI [9] was > 25 µM. The GI50 [10] was 1.57 µM, the TGI [10] was > 25 µM and the GI50 [11] was 0.936 µM. The TGI [11] was > 25 µM, the GI50 [12] was > 21.3 µM and the TGI [12] was > 25 µM. For the same compound, the GI50 [13] was 1.18 µM, the TGI [13] was > 25 µM and the GI50 [14] was 5.16 µM. For the same compound, the TGI [14] was > 25 µM, the GI50 [15] was 10.3 µM and the TGI [15] was > 25 µM. The GI50 [16] was 6.34 µM, the TGI [16] was > 25 µM and the GI50 [17] was 5.4 µM. For the same compound, the TGI [17] was 17.2 µM, the GI50 [18] was 6.9 µM and the TGI [18] was > 25 µM. The GI50 [19] was 6.92 µM, the TGI [19] was 24.6 µM and the GI50 [20] was 1.09 µM. For the same compound, the TGI [20] was > 25 µM, the GI50 [21] was 6.26 µM and the TGI [21] was > 25 µM. The GI50 [22] was 3.13 µM, the TGI [22] was 13.2 µM and the GI50 [23] was 5.75 µM. For the same compound, the TGI [23] was > 25 µM, the GI50 [24] was 2.79 µM and the TGI [24] was > 18.9 µM. The GI50 [25] was 7.03 µM, the TGI [25] was > 17 µM and the GI50 [26] was 0.622 µM. The TGI [26] was 2.25 µM, the GI50 [27] was 3.98 µM and the TGI [27] was > 25 µM. The GI50 [28] was 3.79 µM, the TGI [28] was > 20.1 µM and the GI50 [29] was 6.5 µM. For the same compound, the TGI [29] was > 25 µM, the GI50 [30] was 1.1 µM and the TGI [30] was > 25 µM. It also gave a GI50 [31] of 4.13 µM, a TGI [31] of 12.3 µM and a GI50 [32] of 5.86 µM. The TGI [32] was 14 µM, the GI50 [33] was 1.32 µM and the TGI [33] was > 25 µM. The GI50 [34] was 2.64 µM, the TGI [34] was > 21.4 µM and the GI50 [35] was 11.2 µM. For the same compound, the TGI [35] was > 25 µM, the GI50 [36] was 2.14 µM and the TGI [36] was > 11.2 µM. The GI50 [37] was 4.09 µM, the TGI [37] was > 25 µM and the GI50 [38] was 5.31 µM. The TGI [38] was 19.8 µM, the GI50 [39] was 10.7 µM and the TGI [39] was > 25 µM. For the same compound, the GI50 [40] was 4.68 µM, the TGI [40] was > 25 µM and the GI50 [41] was 6.33 µM. For the same compound, the TGI [41] was > 25 µM, the GI50 [42] was 7.72 µM and the TGI [42] was > 25 µM. For the same compound, the GI50 [58] was 1.7 µM, the TGI [58] was > 14.9 µM and the GI50 [44] was 3.68 µM. The TGI [44] was 17.6 µM, the GI50 [45] was 5.13 µM and the TGI [45] was > 25 µM. For the same compound, the GI50 [46] was 8.16 µM, the TGI [46] was > 25 µM and the GI50 [47] was 1.83 µM. The TGI [47] was > 25 µM, the GI50 [48] was 7.66 µM and the TGI [48] was > 25 µM. The GI50 [49] was 7.34 µM, the TGI [49] was > 25 µM and the GI50 [50] was 6.26 µM. For the same compound, the TGI [50] was > 25 µM, the GI50 [51] was 2.5 µM and the TGI [51] was > 25 µM. It also gave a GI50 [52] of 4 µM, a TGI [52] of 22.2 µM and a GI50 [53] of 12.2 µM. For the same compound, the TGI [53] was > 25 µM, the GI50 [54] was 7.61 µM and the TGI [54] was > 25 µM. For the same compound, the GI50 [55] was 6.48 µM, the TGI [55] was > 25 µM and the GI50 [56] was 7.73 µM. For the same compound, the TGI [56] was > 25 µM, the GI50 [57] was 4.94 µM and the TGI [57] was > 22 µM.
